One assay deals with Enterococcus faecalis. Nature of the assay: microbe, parasite or virus in culture. The note with it: for MIC50 fold change: Enterococcus faecalis (2 isolates). It counts as cell-based.
A further assay relates to Enterococcus faecium. Nature of the assay: microbe, parasite or virus in culture. It counts as cell-based. As to conditions: for MIC50 fold change: Enterococcus faecium (3 isolates).
The subject of assay [1] is Acinetobacter baumannii-calcoaceticus complex. The assay is described as follows: microbe, parasite or virus in culture. The note with it: for MIC50 fold change: Acinetobacter spp. (5 isolates). Type of assay: cell-based.
The next assay relates to Escherichia coli. The assay is described as follows: microbe, parasite or virus in culture. Type of assay: cell-based. As to conditions: for MIC50 fold change: Escherichia coli (5 isolates).
The test system of assay [2] is E. cloacae species complex. The assay is described as follows: microbe, parasite or virus in culture. It counts as cell-based, Enterobacter cloacae. The note with it: for MIC50 fold change: Enterobacter spp. (5 isolates).
The test system of another assay is Pseudomonas aeruginosa. The assay is described as follows: microbe, parasite or virus in culture. Type of assay: cell-based. As to conditions: for MIC50 fold change: Pseudomonas aeruginosa (5 isolates).
Another assay concerns Klebsiella pneumoniae. The note with it: for MIC50 fold change: Klebsiella pneumoniae (5 isolates).
The next assay deals with Streptococcus pneumoniae. Nature of the assay: microbe, parasite or virus in culture. It counts as cell-based. As to conditions: for MIC50 fold change: Streptococcus pneumoniae (5 isolates).
In another assay the test system is Staphylococcus aureus. Nature of the assay: microbe, parasite or virus in culture. Type of assay: cell-based. As to conditions: for MIC50 fold change: relative to P194-acetate, Staphylococcus aureus (5 isolates).

In brackets after ≈: the same amount, converted by molar mass. Where two headings read alike, the source gives them in different places. Where a SMILES comes first, the peptide text is derived from it. [ ]: non-standard residue; d: D form. A value given as a limit tells only on which side of the number the result lay.

Take RTVRATCI [Peptide D8-C5A]: the MIC50 fold change is greater than 4 against Enterococcus faecalis (relative to D8-acetate); greater than 16 against Enterococcus faecium (relative to D8-acetate); greater than 32 in [1] (relative to D8-acetate); greater than 16 in the assay with Escherichia coli (relative to D8-acetate); greater than 4 in [2] (relative to D8-acetate); greater than 2 with Pseudomonas aeruginosa (relative to D8-acetate). In addition, the MIC50 fold change with Klebsiella pneumoniae (relative to D8-acetate) is on record as greater than 8.

Consider RTARCTCI [Peptide D8-V3A], for which the MIC50 fold change against Enterococcus faecalis (relative to D8-acetate) is listed as greater than 4; in the assay with Enterococcus faecium (relative to D8-acetate) it was 8; in assay [1] (relative to D8-acetate) it was 32; with Escherichia coli (relative to D8-acetate), 16; in assay [2] (relative to D8-acetate), greater than 4; in the assay with Pseudomonas aeruginosa (relative to D8-acetate) it was greater than 2. The MIC50 fold change with Klebsiella pneumoniae (relative to D8-acetate) is greater than 8.

ATVRCTCI [Peptide D8-R1A]: the MIC50 fold change is 2 in the assay on Enterococcus faecalis (relative to D8-acetate); 2 with Enterococcus faecium (relative to D8-acetate); 4 in [1] (relative to D8-acetate); 4 against Escherichia coli (relative to D8-acetate); 2 in [2] (relative to D8-acetate); 2 in the assay with Pseudomonas aeruginosa (relative to D8-acetate). For the same molecule, in the assay on Klebsiella pneumoniae (relative to D8-acetate), the MIC50 fold change worked out at 4.

For the molecule AYVRCRCI [Peptide P194-R1A], the MIC50 fold change in the assay with Enterococcus faecalis (relative to P194-acetate) was 1; with Enterococcus faecium (relative to P194-acetate), 2; in assay [1] (relative to P194-acetate), 1; in the assay with Escherichia coli (relative to P194-acetate) it was 0.5; in assay [2] (relative to P194-acetate), 0.5; in the assay on Pseudomonas aeruginosa (relative to P194-acetate), 1. In addition, the MIC50 fold change stood at 1 against Streptococcus pneumoniae (relative to P194-acetate), 0.5 against Staphylococcus aureus and 1 with Klebsiella pneumoniae (relative to P194-acetate).

On to RTVRCTCA [Peptide D8-I8A], for which the MIC50 fold change in the assay on Enterococcus faecalis (relative to D8-acetate) was 4; with Enterococcus faecium (relative to D8-acetate), 4; in assay [1] (relative to D8-acetate), 2; in the assay with Escherichia coli (relative to D8-acetate), 4; in [2] (relative to D8-acetate), 1; in the assay on Pseudomonas aeruginosa (relative to D8-acetate), 2. For the same molecule, in the assay with Klebsiella pneumoniae (relative to D8-acetate), the MIC50 fold change came out at 4.

As to RAVRCTCI [Peptide D8-T2A], the MIC50 fold change with Enterococcus faecalis (relative to D8-acetate) was 2; against Enterococcus faecium (relative to D8-acetate), 2; in assay [1] (relative to D8-acetate), 2; against Escherichia coli (relative to D8-acetate), 2; in assay [2] (relative to D8-acetate), 1; in the assay with Pseudomonas aeruginosa (relative to D8-acetate), greater than 2. Moreover, the MIC50 fold change with Klebsiella pneumoniae (relative to D8-acetate) is on record as 2.

For `CC[C@@H](C)[C@@H](NC(=O)[C@@H](CS)NC(=O)[C@@H](CCCNC(=N)N)NC(=O)[C@@H](CS)NC(=O)[C@@H](CCCNC(=N)N)NC(=O)[C@H](NC(=O)[C@@H](Cc1ccc(O)cc1)NC(=O)[C@H](N)CCCNC(=N)N)C(C)C)C(=O)O` [P194 A, RYVRCRCI] (H-[dR][dY][dV][dR][dC][dR][dC][dI]-OH; N-terminus and C-terminus assumed), the figures for the MIC with Enterococcus faecalis, against Enterococcus faecium and with Staphylococcus aureus were 4 µg/mL (≈ 3.74 µM), 2 µg/mL (≈ 1.87 µM) and 32 µg/mL (≈ 30 µM), respectively. Moreover, the MIC50 is 2 µg/mL (≈ 1.87 µM) in the assay with Enterococcus faecalis; 1 µg/mL (≈ 0.936 µM) in the assay with Enterococcus faecium; 4 µg/mL (≈ 3.74 µM) in [1] (-calcoaceticus complex); 8 µg/mL (≈ 7.49 µM) against Escherichia coli; 16 µg/mL (≈ 15 µM) in assay [2] (species complex); 32 µg/mL (≈ 30 µM) against Pseudomonas aeruginosa. Moreover, the values for the MIC50 with Streptococcus pneumoniae, in the assay with Staphylococcus aureus and with Klebsiella pneumoniae were 32 µg/mL (≈ 30 µM), 32 µg/mL (≈ 30 µM) and 4 µg/mL (≈ 3.74 µM), respectively.

As for RTVRCTAI [Peptide D8-C7A], the MIC50 fold change against Enterococcus faecalis (relative to D8-acetate) is greater than 4; against Enterococcus faecium (relative to D8-acetate), 16; in [1] (relative to D8-acetate), greater than 32; against Escherichia coli (relative to D8-acetate) it was greater than 16; in [2] (relative to D8-acetate), greater than 4; in the assay on Pseudomonas aeruginosa (relative to D8-acetate) it was greater than 2. The MIC50 fold change against Klebsiella pneumoniae (relative to D8-acetate) is given as greater than 8.

Turning to `CC[C@@H](C)[C@@H](NC(=O)[C@@H](CS)NC(=O)[C@@H](CCSC)NC(=O)[C@@H](CS)NC(=O)[C@@H](CCCNC(=N)N)NC(=O)[C@H](NC(=O)[C@H](NC(=O)[C@H](N)CCCNC(=N)N)[C@H](C)O)C(C)C)C(=O)O` [P182 A, RTVRCMCI] (H-[dR][dT][dV][dR][dC][dM][dC][dI]-OH; N-terminus and C-terminus assumed), the MIC with Enterococcus faecalis was 8 µg/mL (≈ 8.15 µM); against Enterococcus faecium, 8 µg/mL (≈ 8.15 µM); in [1] (-calcoaceticus complex), 16 µg/mL (≈ 16.3 µM); in the assay on Escherichia coli it was 16 µg/mL (≈ 16.3 µM); against Streptococcus pneumoniae it was 32 µg/mL (≈ 32.6 µM).

For RTVACTCI [Peptide D8-R4A], the MIC50 fold change is given as greater than 4 in the assay on Enterococcus faecalis (relative to D8-acetate); 8 in the assay with Enterococcus faecium (relative to D8-acetate); greater than 32 in assay [1] (relative to D8-acetate); greater than 16 against Escherichia coli (relative to D8-acetate); greater than 4 in assay [2] (relative to D8-acetate); greater than 2 with Pseudomonas aeruginosa (relative to D8-acetate). Also, the MIC50 fold change in the assay on Klebsiella pneumoniae (relative to D8-acetate) is listed as greater than 8.

With RAVRCRCI [Peptide P194-T2A], the MIC50 fold change against Enterococcus faecalis (relative to P194-acetate) is on record as 4; in the assay on Enterococcus faecium (relative to P194-acetate), 2; in assay [1] (relative to P194-acetate), 0.5; with Escherichia coli (relative to P194-acetate) it was 0.5; in assay [2] (relative to P194-acetate), 0.5; in the assay on Pseudomonas aeruginosa (relative to P194-acetate) it was greater than 2. The MIC50 fold change against Streptococcus pneumoniae (relative to P194-acetate), against Staphylococcus aureus and with Klebsiella pneumoniae (relative to P194-acetate) was 2 each time.

In the case of `CC[C@@H](C)[C@@H](NC(=O)[C@@H](CS)NC(=O)[C@@H](CCSC)NC(=O)[C@@H](CS)NC(=O)[C@@H](CCCNC(=N)N)NC(=O)[C@H](NC(=O)[C@H](NC(=O)[C@H](N)CCCNC(=N)N)[C@H](C)O)C(C)C)C(=O)O` [P182 F, RTVRCMCI] (H-[dR][dT][dV][dR][dC][dM][dC][dI]-OH; N-terminus and C-terminus assumed), the MIC in the assay with Enterococcus faecalis is 8 µg/mL (≈ 8.15 µM); with Enterococcus faecium it was 8 µg/mL (≈ 8.15 µM); in [1] (-calcoaceticus complex), 16 µg/mL (≈ 16.3 µM); against Streptococcus pneumoniae, 32 µg/mL (≈ 32.6 µM).

RTVRCACI [Peptide D8-T6A]: the MIC50 fold change in the assay on Enterococcus faecalis (relative to D8-acetate) is on record as 1; against Enterococcus faecium (relative to D8-acetate), 1; in [1] (relative to D8-acetate), 2; in the assay on Escherichia coli (relative to D8-acetate) it was 1; in assay [2] (relative to D8-acetate), 0.5; against Pseudomonas aeruginosa (relative to D8-acetate), 2. The MIC50 fold change was 1 in the assay on Streptococcus pneumoniae (relative to D8-acetate) and 2 with Klebsiella pneumoniae (relative to D8-acetate).

Turning to `CC[C@@H](C)[C@@H](NC(=O)[C@@H](CS)NC(=O)[C@@H](CCCNC(=N)N)NC(=O)[C@@H](CS)NC(=O)[C@@H](CCCNC(=N)N)NC(=O)[C@H](NC(=O)[C@@H](Cc1ccc(O)cc1)NC(=O)[C@H](N)CCCNC(=N)N)C(C)C)C(=O)O` [P194 F, RYVRCRCI] (H-[dR][dY][dV][dR][dC][dR][dC][dI]-OH; N-terminus and C-terminus assumed), the values for the MIC against Enterococcus faecalis, in the assay with Enterococcus faecium and in the assay with Streptococcus pneumoniae were 8 µg/mL (≈ 7.49 µM), 4 µg/mL (≈ 3.74 µM) and 32 µg/mL (≈ 30 µM), respectively.

The record behind these values is patent US20260078158A1, “COMPOSITIONS COMPRISING CXCL10-DERIVED PEPTIDES AND METHODS OF USE THEREOF” (priority 2022, published 2026).
